Results on three molecules are retold here after paper PMC9822358, “New Structures, Spectrometric Quantification, and Inhibitory Properties of Cardenolides from Asclepias curassavica Seeds” (Molecules, 2022).

SMILES strings stand for the structures.

Experiment [1] has as its system porcine NKA. The arrangement: method as in PMID 33850021. As to conditions: cited from earlier work.
The target in experiment [2] is porcine Na^+/K^+-ATPase (purified NKA from S. domesticus cerebral cortex). Briefly: Na+/K+ ATPase (NKA) inhibitory activity assay (inorganic phosphate released from ATP, absorbance at 700 nm). Type of experiment: biochemical. As to conditions: unadapted NKA from Sus domesticus; read-out: IC50 against porcine NKA. As for the experimental part: We tested the inhibitory capacity of the new compounds 1 and 2 and the known cardenolides 5–10 against porcine NKA. We used an in vitro assay to determine the IC50 of each compound and used ouabain as a reference.
We quantified the NKA inhibitory activity of the isolated cardenolides using purified NKA from S. domesticus cerebral cortex (Sigma-Aldrich-A7510-5UN, Steinheim, Germany), following protocols standardized by Petschenka et al.. Briefly, porcine NKA was diluted in di-water to a final assay concentration of 0.01 U/mL. The ATPase was exposed to exponentially decreasing concentrations from 10^−3 to 10^−8 M of ouabain (Sigma-Aldrich, O3125-1G, Steinheim, Germany) or the cardenolides 1–2 and 5–10. […] The NKA activity after cardenolide exposure was determined by quantification of inorganic phosphate released from enzymatically hydrolysed ATP. The […] levels were measured by photometric determination, reading the absorbance at 700 nm with a microplate reader (BMG Clariostar, BMG Labtech, Germany). The absorbance of each reaction was corrected with the respective background, and the inhibition curves were plotted in R studio [61] with log10-transformed cardenolide concentration versus percent of uninhibited control, with top and bottom asymptotes set to 1 and 0, respectively. […] IC50 values for each cardenolide and ouabain were also calculated from the inhibition curves using R studio. […]

For the molecule `C[C@@H]1C[C@H](O)[C@]2(O)O[C@@H]3C[C@@]4(C=O)[C@@H](CC[C@@H]5[C@@H]4CC[C@]4(C)[C@@H](C6=CC(=O)OC6)CC[C@]54O)C[C@H]3O[C@@H]2O1` [calotropin], in experiment [1] (log10 of IC50 in M), the “log10 IC50 against porcine NKA” value was −6.56. The IC50 in experiment [1] (read-out: IC50 against porcine NKA) was 270 nM. In the case of `CC1CC(O)C2(O)OC3CC4(C=O)C(CCC5C4CCC4(C)C(C6=CC(=O)OC6)C(O)CC54O)CC3OC2O1` (stereo not drawn) [Compound 10, 16α-hydroxycalotropin], in experiment [2], the IC50 is 3670 nM. On to `C[C@H]1O[C@@H](O[C@H]2CC[C@@]3(C=O)[C@@H](CC[C@@H]4[C@@H]3CC[C@]3(C)[C@@H](C5=CC(=O)OC5)CC[C@]43O)C2)[C@H](O)[C@H](O)[C@@H]1O` [Compound 9, gofruside], for which the IC50 in experiment [2] worked out at 96.5 nM.
